Experimental data as given in patent US12391946B2, “Use of a Janus kinase inhibitor and a telomerase inhibitor for the treatment of myeloproliferative neoplasms” (priority 2019, dated 2025).
Read-outs that look alike come from different tables or passages of the source.

Legend:
Format in all cases: cell-based, human
MF splenic CD34+ cells [1] = experiment: In vitro treatment of MF splenic CD34+ cells with Rux and imetelstat alone and in combination (flow cytometry, HPC assays); settings: Rux alone 50 nM 3 days
Protocol: Treatment of MF and normal CD34^+ cells with doses of Rux and Imetelstat alone and in combination. […] For simultaneous combination treatment, CD34^+ cells were exposed to Rux and imetelstat for 3 days and were washed. Cells were then exposed to imetelstat again for additional 4 days or 11 days. For sequential combination treatment, CD34^+ cells were incubated in the presence of Rux alone for 3 days, followed by imetelstat alone for 7 or 14 days. For the three treatment strategies containing imetelstat, cells were dosed in total three times with imetelstat. Three days after Rux alone treatment and 7 or 14 days after each treatment with imetelstat, cells were enumerated and stained with CD34, a lineage cocktail, and CD15 mAbs and analyzed flow cytometrically. The absolute numbers of Lin^− CD34^+ (phenotypically defined HSC/HPC) and CD15^+CD34^− (myeloid) cells generated in the cultures were calculated by multiplying the total viable cell numbers by the percentage of CD34^+Lin^− and CD15^+CD34^− cells. […]
HPC assays. A fraction of cells harvested from the above cultures were also analyzed in methylcellulose to which a cytokine cocktail was added according to the manufacturer's instructions (StemCell Technologies). […] Individual CFU-GM colonies (20-38 colonies/treatment group/patient) were plucked and analyzed for the presence of JAK2V617F using a nested allele-specific PCR. […]

CB CD34+ cells = experiment: In vitro treatment of CB CD34+ cells with various doses of Rux; settings: various doses of Rux (50-500 nM)
Protocol: (§1) Treatment of MF and normal CD34^+ cells with doses of Rux and Imetelstat alone and in combination. […] For simultaneous combination treatment, CD34^+ cells were exposed to Rux and imetelstat for 3 days and were washed. Cells were then exposed to imetelstat again for additional 4 days or 11 days. For sequential combination treatment, CD34^+ cells were incubated in the presence of Rux alone for 3 days, followed by imetelstat alone for 7 or 14 days. For the three treatment strategies containing imetelstat, cells were dosed in total three times with imetelstat. Three days after Rux alone treatment and 7 or 14 days after each treatment with imetelstat, cells were enumerated and stained with CD34, a lineage cocktail, and CD15 mAbs and analyzed flow cytometrically. The absolute numbers of Lin^− CD34^+ (phenotypically defined HSC/HPC) and CD15^+CD34^− (myeloid) cells generated in the cultures were calculated by multiplying the total viable cell numbers by the percentage of CD34^+Lin^− and CD15^+CD34^− cells. In addition, parallel cultures to which MM or vehicle alone was added were performed.

MF splenic CD34+ cells [2] = experiment: In vitro treatment of MF splenic CD34+ cells with various doses of Rux; settings: for IC50: Homo sapiens, concentration of Rux achieving 50% inhibition
Protocol: as §1

IC50 (MF splenic CD34+ cells [2]; CFU-GM, MF CD34+ cells, read-out: 50% inhibition of CFU-GM formation): 150 nM
SMILES: N#CC[C@H](C1CCCC1)n1cc(-c2ncnc3[nH]ccc23)cn1 [Rux, (3R)-3-Cyclopentyl-3-[4-(7H-pyrrolo[2,3-d]pyrimidin-4-yl)pyrazol-1-yl]propanenitrile]
number of mature myeloid cells generated in cultures of splenic MF CD34+ cells (MF splenic CD34+ cells [1]; P=0.001): reduced | numbers of assayable HPCs (CFU-GM+BFU-E+CFU-GEMM) generated in cultures of splenic MF CD34+ cells (MF splenic CD34+ cells [1]; P=9.69E-06): reduced | number of CB CD34+ cells (CB CD34+ cells): decreased only to a limited degree | IC50 (MF splenic CD34+ cells [2]; CD34+ cell, read-out: 50% inhibition of MF CD34+ cell proliferation): 150 nM | absolute number of MF splenic CD34+ cells (MF splenic CD34+ cells [2]; various doses of Rux (50-500 nM)): decreased in a dose dependent fashion
